This assay relates to human LINE-1. Put plainly: Human LINE-1 retrotransposition assay (dual luciferase pYX017 reporter, HeLa cells, Table 11). The assay is classed as cell-based. The method, then: Assays were performed as described in Xie et al., 2011^151 with several modifications. The reporter assay was performed in 96 well white Optical bottom plates. 6000 HeLa cells were seeded in each well 24 hours prior transfection and compound treatment. All compounds were resuspended in DMSO. Stock solution concentrations varied from 50 mM to 1.25 mM depending of the solubility of the compound. Serial dilutions (1:3) were prepared in DMSO. Ten different concentrations of each compound were tested in triplicate. Medium containing different concentrations of the compounds were prepared by adding 2 μL of the compound dilution to 1 mL of the culture medium. The final concentration of DMSO in the medium was 0.2%. FuGENE® HD transfection reagent (Promega) was used to transfect the plasmid pYX016 into the cells. The transfection mix was prepared in OpiMEM (Thermo Fisher) using a reagent to DNA ratio of 3.5:1 according to manufacturer's instructions. Culture medium was removed from the cells and discarded. The transfection mix (5 μL) was mixed with the compound containing medium (100 μL/well) and this was added onto the cells of each well. Cells were incubated for 48H at 37° C./5% CO2. Luciferase reporter activity was quantified with the Dual-Luciferase® Reporter Assay System (Promega) according to manufacturer's instructions for multiwell plates with the following modification: Cells were lysed directly on the multiwell plate with 30 μL of the passive lysis buffer (PLB) for 20 min at room temperature, with gentle shaking to ensure complete cell lysis (instead of 20 μL of PLB for 15 min). Firefly and Renilla luciferase signals were measured using a SpectraMax i3x Multi-Mode Microplate Reader. […] Relative L1 activity was calculated as Firefly/Renilla *10,000. […] The experiment was performed twice, independently. […] Because the human construct yields a lower signal, compounds were incubated with cells for 72 hours instead of 48 hours, and cells were seeded at a density of 2000/well instead of 6000/well. In addition, the transfection reagent to DNA ratio was 2:1 instead of 3.5:1.

Molecules are shown by their SMILES. Like-named read-outs stand apart in the source and are kept apart here.

On to `Nc1ccn([C@@H]2CS[C@H](CO)O2)c(=O)n1` [Lamivudine], for which the IC50 (as a rule, the point on the concentration scale where inhibition reaches its midpoint) is, setting by setting: (pYX017, 72 H post-transfection, read-out: Human L1 activity inhibition IC50, Exp. 1) 793 nM; (pYX017, 72 H post-transfection, read-out: Human L1 activity inhibition IC50, Exp. 2) 867 nM; (pYX017, 72 H, n = 2, read-out: Human L1 activity inhibition IC50, Average) 830 nM; (read-out: human L1 inhibition IC50) greater than 800 nM.

Values taken from patent US12246022B2, “Compositions and methods for treating, preventing or reversing age associated inflammation and disorders” (BROWN UNIVERSITY, priority 2019, dated 2025).
